Data set [1] relates to BAF3-EGFR (del19/T790M/C797S) cells. Nature of the data set: Inhibition of proliferation of BAF3-EGFR (Del19/T790M/C797S) cells, CCK-8. The format is cell-based. The note with it: 72 h, read-out: BAF3(EGFR T790M Del19 C797S) cell inhibitory activity IC50. The gist of the method: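 Cells seeded at 1.0×10^5 cells/mL in RPMI + 10% FBS, cultured overnight at 37° C, 5% CO2, then compound added in duplicate wells, with untreated cells as negative control. Inhibition rate calculated against negative-control and blank means. IC50 obtained from four-parameter fit of inhibition versus log concentration.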

Data set [2] has as its system NCI-H1975(L858R T790M). The experiment in a line: Nude mouse subcutaneous xenograft tumor model of NCI-H1975 cells. The format is in vivo, nude mice. The note with it: once a day; for Tumor growth inhibition % (tumor weight, d 18) / Tumor growth inhibition % (volume, d 15): 17 days. The source says:
Evaluation on drug effect on nude mouse subcutaneous xenograft tumor model of NCI-H1975 cells: NCI-H1975 cells were inoculated subcutaneously in the right axilla of SPF-grade female nude mice (source: Jiangsu Huachuang Sino Pharmaceutical Technology Co., Ltd.) at 1×10^6 cells/mouse. When the mean tumor volume reached about 200 mm^3, the animals were grouped.
The day of grouping was defined as day 0, and intragastric administration was started on day 0 and performed once a day. The tumor volume was measured 2-3 times a week, meanwhile, the mice were weighed and the data were recorded; the general behavior of the mice was observed and recorded every day. After the experiment was completed, the tumors were removed, weighed, and photographed.
Tumor volume TV (mm^3)=½×(a×b^2),
Relative tumor volume RTV=TVt/TV0,
Relative tumor proliferation rate T/C (%)=(TRTV/CRTV)×100%,
Tumor growth inhibition rate TGI (%)=(1−TW/TW0)×100%;

The nature of data set [3]: In vivo pharmacokinetics in ICR mice. The note with it: for MRT last: read-out: MRT(0-t); for half-life: read-out: T½ (converted); for bioavailability: 10 mg/kg. A digest of the protocol: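 ICR mice (18–20 g, 9 per group, fasted 12 h) received 10 mg/kg of compound intragastrically. Orbital blood was taken from 0 min to 24 h and EDTA-K2 plasma was prepared. Plasma was precipitated with acetonitrile containing diazepam as internal standard and analysed by LC/MS/MS.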

The mark [4] stands for this setting: mouse, plasma, 1 mg/kg, IV, read-out: AUC(0-t).
The mark [5] stands for this setting: mouse, plasma, PO, 10 mg/kg intragastric.
Setting [6] is: mouse, plasma, PO, 10 mg/kg intragastric, read-out: AUC(0-t).
Where [7] appears, read: mouse, plasma, PO, 10 mg/kg intragastric, read-out: Cmax.
The mark [8] stands for this setting: mouse, plasma, PO, 10 mg/kg intragastric, read-out: Tmax.

Experimental findings from US20250034165A1, “COMPOUND CONTAINING CYCLOALKYL OR HALOALKYL” (CHIA TAI TIANQING PHARMACEUTICAL GROUP CO., LTD., priority 2021, published 2025) are described below.

By IC50 is commonly meant the point on the concentration scale where inhibition reaches its midpoint. Broadly, the AUC(0-inf) is total exposure, with the tail of the curve extrapolated. Low readings indicate low exposure, high ones high exposure. In general, AUC(0-t) refers to exposure summed from dosing to a finite time, without extrapolation to infinity. As usually defined, the bioavailability is the share of a dose that reaches the circulation, judged against a reference dose that is usually intravenous. A high value points to much systemic uptake. For orientation: Cmax means the peak of the concentration-time curve. Usually Tmax stands for the time from dosing to the highest level.

Read-outs that look alike come from different tables or passages of the source.

Turning to `Cc1cc2cc(n1)-c1cnn(C)c1OCCC[C@@H](C1CC1)CN1/C(=N/C2=O)Nc2cc(N[C@H]3CC[C@H](N(C)C)CC3)ccc21` [Example 25], the IC50 in data set [1] was below 1 nM. In addition, in data set [2] (5 mpk (i.g)), the “Tumor growth inhibition % (tumor weight, d 18)” value is 31.4% (tumor and the “Tumor growth inhibition % (volume, d 15)” value is listed as 22.5% (volume,. In addition, in data set [2] (10 mpk (i.g)), the “Tumor growth inhibition % (tumor weight, d 18)” value was 75.8% (tumor and the “Tumor growth inhibition % (volume, d 15)” value is listed as 72.5% (volume,.

For `Cc1cc2cc(n1)-c1cnn(C)c1OCCC[C@@H](C1CC1)CN1/C(=N/C2=O)Nc2cc(N[C@H]3CC[C@@H](N(C)C)CC3)ccc21` [Example 26], in data set [1], the IC50 is below 1 nM.

As for `Cc1cc2cc(n1)-c1cnn(C)c1OCCC[C@@H](C1CC1)CN1/C(=N/C2=O)Nc2ccc(NCCN(C)C)cc21` [Example 28], the IC50 in data set [1] (Ba/F3 EGFR-Del19/T790M/C797S) is below 1 nM. Also, the CLz in data set [3] (IV) amounted to 2.93 L/h/kg. Further, in data set [3] (mouse, plasma, 1 mg/kg, IV), the AUC(0-inf) came to 0.341 µg·h/mL, the MRT last was 3.96 h and the half-life was 4.64 h. Also, the AUC(0-t) in data set [3] (setting [4]) was 0.336 µg·h/mL. This molecule also had a bioavailability in data set [3] (mouse, plasma, PO vs IV) of 27.9%. Further, in data set [3] (setting [5]), the AUC(0-inf) stood at 0.965 µg·h/mL, the MRT last is 7.72 h and the half-life is 4.29 h. Moreover, the AUC(0-t) in data set [3] (setting [6]) is 0.938 µg·h/mL. Besides, in data set [3] (setting [7]), the Cmax came to 0.0745 µg/mL. The Tmax in data set [3] (setting [8]) was determined as 6 h.

For `Cc1cc2cc(n1)-c1cnn(C)c1OCCC[C@@H](C1CC1)CN1/C(=N/C2=O)Nc2cc(NC3(C)COC3)ccc21` [Example 29], the IC50 in data set [1] (Ba/F3 EGFR-Del19/T790M/C797S) was below 1 nM. Besides, the CLz in data set [3] (IV) turned out to be 1.18 L/h/kg. In addition, in data set [3] (mouse, plasma, 1 mg/kg, IV), the AUC(0-inf) is 0.85 µg·h/mL, the MRT last turned out to be 1.1 h and the half-life was 1.65 h. The AUC(0-t) in data set [3] (setting [4]) was 0.845 µg·h/mL. In data set [3] (mouse, plasma, PO vs IV), the bioavailability came to 42.9%. Besides, in data set [3] (setting [5]), the AUC(0-inf) worked out at 3.64 µg·h/mL, the MRT last was 5.99 h and the half-life was 3.06 h. The AUC(0-t) in data set [3] (setting [6]) came out at 3.62 µg·h/mL. In addition, in data set [3] (setting [7]), the Cmax worked out at 0.553 µg/mL. Besides, the Tmax in data set [3] (setting [8]) worked out at 0.5 h. Further, in data set [2] (5 mpk (i.g)), the “Tumor growth inhibition % (tumor weight, d 18)” value is given as 41.7% (tumor weight, and the “Tumor growth inhibition % (volume, d 15)” value is 40.0% (volume, d 15). Besides, in data set [2] (10 mpk (i.g)), the “Tumor growth inhibition % (tumor weight, d 18)” value is recorded as 83.9% (tumor and the “Tumor growth inhibition % (volume, d 15)” value is listed as 75.0% (volume,.

With `Cc1cc2cc(n1)-c1cnn(C)c1OCCC[C@@H](C1CC1)CN1/C(=N/C2=O)Nc2cc(N[C@H](C)C3COC3)ccc21` [Example 39], the IC50 in data set [1] was below 1 nM. Also, in data set [3] (IV), the “AUC(0-t)” value is 0.261 µg·h/mL, the “AUC(0-∞)” value came out at 0.262 µg·h/mL, the CLz was found to be 3.81 L/h/kg and the “MRT(0-t)” value is listed as 0.61 h. Moreover, the T½ in data set [3] (IV) is given as 1.74 h. In addition, the “F (%)” value in data set [3] (PO vs IV) is given as 118.35%. Moreover, in data set [3] (PO, 10 mg/kg intragastric), the “AUC(0-t)” value is 3.093 µg·h/mL, the “AUC(0-∞)” value came out at 3.096 µg·h/mL, the Cmax worked out at 0.488 µg/mL and the “MRT(0-t)” value is recorded as 3.84 h. Further, in data set [3] (PO, 10 mg/kg intragastric), the time to peak (Tmax) came out at 0.50 h and the T½ is 2.33 h. Further, in data set [2] (10 mpk (i.g), 14 days), the “Tumor growth inhibition % (tumor weight, d 14)” value is given as 65.1% (tumor and the “Tumor growth inhibition % (volume, d 12)” value is recorded as 70.2%.
